Data on three compounds can be found in publication PMC10746112, “Synthesis and Pro-Apoptotic Effects of Nitrovinylanthracenes and Related Compounds in Chronic Lymphocytic Leukaemia (CLL) and Burkitt’s Lymphoma (BL)” (Molecules, 2023).

Where two headings read alike, the source gives them in different places.

For orientation: IC50 means the concentration needed to halve the response being measured.

For one test, the system named is HG-3 CLL cell line. Kind of test: alamarBlue cell viability assay. To be noted: for viability at 10 µM / IC50: 24 h; for viability at 10 µM: read-out: % Viability HG-3, 10 µM, 24 h.
Test [1] relates to MUTU-I Burkitt’s lymphoma cell line. The test can be described thus: alamarBlue cell viability assay. To be noted: MUTU-I; for viability at 1 µM / viability at 10 µM: 24 h; for viability at 1 µM: read-out: % Viable Cells Remaining MUTU-1, 1 µM, 24 h; for viability at 10 µM: read-out: % Viable Cells Remaining MUTU-1, 10 µM, 24 h.
For test [2] the test system is unchanged. To be noted: read-out: IC50 MUTU-I; previous work; cited from earlier work.
In test [3] the test system is DG-75 Burkitt’s lymphoma cell line. Kind of test: alamarBlue cell viability assay. To be noted: Homo sapiens; for viability at 1 µM / viability at 10 µM: DG-75, 48 h; for viability at 1 µM: read-out: % Viable Cells Remaining DG-75, 1 µM, 48 h; for viability at 10 µM: read-out: % Viable Cells Remaining DG-75, 10 µM, 48 h.
The test system of the next test is PGA-1 CLL cell line. The test can be described thus: alamarBlue cell viability assay. The note with it: 24 h; for viability at 10 µM: read-out: % Viability PGA-1, 10 µM, 24 h. (The colour change of resazurin is a common sign of viable cells or microbes.)
Test [4] concerns MCF-7 human breast cancer cells. Kind of test: alamarBlue cell viability assay. The note with it: MCF7, read-out: MCF-7 IC50.
Test [5] relates to MDA-MB-231 human breast cancer cells. Kind of test: alamarBlue cell viability assay. The class given is cell-based. The note with it: eight concentrations 0.001–50 μM.
The next test relates to HG-3 CLL cells. The test can be described thus: Annexin V/PI apoptotic assay (FACS). The class given is cell-based. The note with it: 48 h. As to the method: (§1) The pro-apoptotic effects of the selected nitrovinylanthracene compounds 19a, 19g, 19i, 19l and 19m after 48 h were next determined using FITC (fluorescein isothiocyanate), Annexin V/PI (propidium iodide) staining and FACS (fluorescence-activated cell sorting) analysis to characterize the mode of cellular death induced. […] The CLL cells PGA1 and HG3 (1 × 10^6 cells/mL) were treated at 37 °C with either vehicle (1% (v/v) DMSO) or the nitrostyrene compounds 19a (10 μM, 5 μM and 1 μM) and 19g, 19i, 19l and 19m (10 μM and 1 μM) for 48 h. The cells were then harvested by centrifugation at 400× g in a temperature-controlled Sorvall centrifuge and rinsed with 0.5 mL of Ca^2+ Annexin-V-binding buffer (0.1 M HEPES, pH 7.4; 0.14 M NaCl; 25 mM CaCl2). The samples were resuspended in 50 µL FITC Annexin V (diluted 1:33 in Ca^2+ Annexin V-binding buffer), incubated on ice for 10 min (protected from light), washed with Annexin-V-binding buffer and re-suspended in 500 µL of propidium iodide (PI) solution (0.5 µg/mL). The samples were analysed within 1 h using a BD Accuri C6 flow cytometer counting 10,000 cells and analysed using the FlowJo software (FlowJo LLC, Ashland, OR, USA) package.

A further test has as its system PGA-1 CLL cells. The test can be described thus: Annexin V/PI apoptotic assay (FACS). The class given is cell-based. To be noted: 48 h. As to the method:
as §1

The test system of test [6] is DG-75 Burkitt’s lymphoma cell line. The note with it: read-out: IC50 DG-75; previous work; cited from earlier work.
The mark [7] stands for this setting: CLL cell, read-out: HG-3 IC50, 24 h.
Where [8] appears, read: CLL cell, read-out: PGA-1 IC50, 24 h.

On to `O=[N+]([O-])/C=C/c1c2ccccc2cc2ccccc12` [Compound 19a, (E)-9-(2-nitrovinyl)anthracene], for which the viability at 10 µM in the test on HG-3 CLL cell line (CLL cell) is 8%; in test [1], 5.91%; in test [3] it was 14%; in the test on PGA-1 CLL cell line (CLL cell), 5.1%. For the same compound, the 50% inhibitory concentration (IC50) was 2.4 µM with HG-3 CLL cell line (setting [7]); 2.43 µM in the test on HG-3 CLL cell line (read-out: HG-3 IC50); 2.57 µM in test [1] (read-out: IC50 MUTU-I); 3 µM in [2]; 2.08 µM in test [3] (DG-75, read-out: IC50 DG-75); 3.1 µM with PGA-1 CLL cell line (setting [8]). The IC50 in [4] is 1.85 µM; in test [5] it was 3.82 µM; in test [6], 1.5 µM. Also, the viability at 1 µM worked out at 82.5% in test [1] and 94.6% in test [3]. The total apoptosis in the test on HG-3 CLL cells (HG-3, 1 μM) was found to be 21%; with HG-3 CLL cells (HG-3, 5 μM) it was 69%; with HG-3 CLL cells (HG-3, 10 μM), 93%; with PGA-1 CLL cells (PGA-1, 1 μM), 40%; in the test on PGA-1 CLL cells (PGA-1, 5 μM) it was 67%; with PGA-1 CLL cells (PGA-1, 10 μM), 94%.
Take `COc1c2ccccc2c(/C=C/[N+](=O)[O-])c2ccccc12` [Compound 19g]: the viability at 10 µM was 0.5 to 8.3% with HG-3 CLL cell line (CLL cell), 1.85% in [1], 13.8% in test [3] and 1.21% with PGA-1 CLL cell line (CLL cell). Besides, the concentration for half-maximal inhibition (IC50) in the test on HG-3 CLL cell line (setting [7]) turned out to be 0.17 µM; with PGA-1 CLL cell line (setting [8]), 1.3 µM; in the test on PGA-1 CLL cell line (read-out: PGA-1 IC50), 1.29 µM; in test [4], 5.31 µM; in test [5], 3.78 µM. Further, in the test on HG-3 CLL cell line (ratio of IC50 values), the “fold greater response (IC50) in HG-3 compared to PGA-1 cells” value is 7.8 fold. The viability at 1 µM in [1] turned out to be 90.1%; in test [3] it was 89.2%; in the test on PGA-1 CLL cell line (CLL cell, read-out: % Viability PGA-1, 1 µM, 24 h) it was 43%. The total apoptosis with HG-3 CLL cells (HG-3, 1 μM) is reported as 11%; in the test on HG-3 CLL cells (HG-3, 10 μM) it was 54%; in the test on PGA-1 CLL cells (PGA-1, 10 μM), 52%.
As to `Cc1c2ccccc2c(/C=C/[N+](=O)[O-])c2ccccc12` [Compound 19i, (E)-9-Methyl-10-(2-Nitrovinyl)Anthracene], the viability at 10 µM was 0.5 to 8.3% with HG-3 CLL cell line (CLL cell), 1.95% in [1], 19.5% in [3] and 2.9% with PGA-1 CLL cell line (CLL cell). The IC50 in the test with HG-3 CLL cell line (setting [7]) is 3.85 µM; in the test on PGA-1 CLL cell line (setting [8]), 4.4 µM; in test [4], 2.11 µM; in test [5], 3.26 µM. The viability at 1 µM in test [1] worked out at 94.5%; in test [3], 96.7%. Besides, the total apoptosis in the test with HG-3 CLL cells (HG-3, 10 μM) turned out to be 70%; in the test with PGA-1 CLL cells (PGA-1, 10 μM), 80%.
